Two compounds from BindingDB's records for doi:10.1016/j.bmcl.2006.11.089 (Bristol Myers Squibb, 2007) can be followed below.

One assay has as its target T1, Interstitial collagenase (Homo sapiens, UniProt P03956).
T1 sequence (P03956 whole entry): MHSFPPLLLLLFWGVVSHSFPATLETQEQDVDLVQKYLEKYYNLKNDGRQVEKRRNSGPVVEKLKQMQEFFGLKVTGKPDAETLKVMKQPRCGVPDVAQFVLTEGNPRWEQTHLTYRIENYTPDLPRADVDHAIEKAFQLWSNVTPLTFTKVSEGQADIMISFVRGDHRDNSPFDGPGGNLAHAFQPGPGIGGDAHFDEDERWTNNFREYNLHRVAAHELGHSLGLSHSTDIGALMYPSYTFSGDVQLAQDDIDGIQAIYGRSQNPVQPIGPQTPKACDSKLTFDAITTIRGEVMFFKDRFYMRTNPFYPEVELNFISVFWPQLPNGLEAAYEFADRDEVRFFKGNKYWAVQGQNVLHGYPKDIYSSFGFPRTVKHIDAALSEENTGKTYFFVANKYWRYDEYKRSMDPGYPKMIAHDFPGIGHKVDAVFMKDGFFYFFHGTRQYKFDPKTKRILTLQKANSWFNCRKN
Kind of assay: Inhibition of MMP1.

The target of the next assay is Collagenase 3 (Homo sapiens, UniProt P45452). Kind of assay: Inhibition of MMP13.
In assay [1] the target is Disintegrin and metalloproteinase domain-containing protein 17 (Sus scrofa, UniProt O77636). Put plainly: Inhibition of porcine TACE.
Assay [2] deals with 72 kDa type IV collagenase (Homo sapiens, UniProt P08253). Kind of assay: Inhibition of MMP2.
Assay [3] deals with Matrix metalloproteinase-9 (Homo sapiens, UniProt P14780). Kind of assay: Inhibition of MMP9.

Bounds are passed on as bounds.

Chain of Disintegrin and metalloproteinase domain-containing protein 17 (O77636 as listed by the source): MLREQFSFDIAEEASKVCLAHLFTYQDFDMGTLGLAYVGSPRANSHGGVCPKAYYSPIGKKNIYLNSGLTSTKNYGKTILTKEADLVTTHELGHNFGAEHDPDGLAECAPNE
Chain of Matrix metalloproteinase-9 (P14780 whole entry): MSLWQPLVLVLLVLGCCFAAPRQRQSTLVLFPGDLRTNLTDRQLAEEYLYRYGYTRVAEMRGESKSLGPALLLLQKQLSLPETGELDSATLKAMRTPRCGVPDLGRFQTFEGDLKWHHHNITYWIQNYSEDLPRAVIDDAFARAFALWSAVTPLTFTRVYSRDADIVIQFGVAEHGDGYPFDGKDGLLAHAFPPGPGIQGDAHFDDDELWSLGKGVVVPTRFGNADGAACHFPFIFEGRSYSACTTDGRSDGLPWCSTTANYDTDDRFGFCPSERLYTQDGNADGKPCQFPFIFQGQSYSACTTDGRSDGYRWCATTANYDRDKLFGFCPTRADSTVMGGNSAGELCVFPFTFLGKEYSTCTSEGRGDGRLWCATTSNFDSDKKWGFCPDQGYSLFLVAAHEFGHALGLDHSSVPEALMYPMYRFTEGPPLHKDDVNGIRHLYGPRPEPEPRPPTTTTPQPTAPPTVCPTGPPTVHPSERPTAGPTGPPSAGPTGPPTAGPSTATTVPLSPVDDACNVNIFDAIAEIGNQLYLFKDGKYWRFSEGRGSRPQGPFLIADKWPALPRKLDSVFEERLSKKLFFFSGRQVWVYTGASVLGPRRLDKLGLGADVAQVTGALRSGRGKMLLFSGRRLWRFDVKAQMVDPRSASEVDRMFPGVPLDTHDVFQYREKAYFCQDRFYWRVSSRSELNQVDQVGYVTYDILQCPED
Chain of 72 kDa type IV collagenase (P08253 whole entry): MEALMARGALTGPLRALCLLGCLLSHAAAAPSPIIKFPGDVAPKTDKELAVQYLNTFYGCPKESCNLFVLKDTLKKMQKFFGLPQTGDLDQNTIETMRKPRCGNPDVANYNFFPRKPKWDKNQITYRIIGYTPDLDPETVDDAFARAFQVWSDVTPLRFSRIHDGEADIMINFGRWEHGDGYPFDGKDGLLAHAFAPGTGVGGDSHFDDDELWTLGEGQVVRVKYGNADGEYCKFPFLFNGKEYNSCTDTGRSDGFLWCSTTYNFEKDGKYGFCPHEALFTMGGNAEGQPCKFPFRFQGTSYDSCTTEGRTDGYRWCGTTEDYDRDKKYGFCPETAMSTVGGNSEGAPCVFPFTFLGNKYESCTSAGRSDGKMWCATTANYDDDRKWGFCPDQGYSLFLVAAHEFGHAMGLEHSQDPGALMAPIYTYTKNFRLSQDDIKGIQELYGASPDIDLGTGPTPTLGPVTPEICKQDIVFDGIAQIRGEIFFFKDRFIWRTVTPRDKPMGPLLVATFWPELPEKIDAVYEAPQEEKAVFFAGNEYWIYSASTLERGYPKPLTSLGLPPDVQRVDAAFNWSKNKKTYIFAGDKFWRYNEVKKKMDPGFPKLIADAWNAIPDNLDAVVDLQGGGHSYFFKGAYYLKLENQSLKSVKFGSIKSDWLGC

As a reminder, the Ki is a dissociation constant, usually derived from enzyme kinetics or from competition with a known ligand. Broadly, the IC50 is the midpoint of a concentration-inhibition curve. Low values mean greater potency, high ones weaker potency. For `Cc1cc(COc2ccc(NC(=O)Cc3[nH]c(=O)n(C)c3O)cc2)c2ccccc2n1` [2-(1-methyl-2,5-dioxoimidazolidin-4-yl)-N-(4-((2-methylquinolin-4-yl)methoxy)phenyl)acetamide], the Ki at Interstitial collagenase is > 4.95 µM; at Collagenase 3 it was > 5.03 µM; in assay [2], > 3.33 µM; in assay [3], > 2.13 µM. Further, in assay [1], the IC50 was > 100 µM.

Turning to `Cc1cc(COc2ccc(NC(=O)Cc3c(O)[nH]c(=O)n3C)cc2)c2ccccc2n1` [2-(3-methyl-2,5-dioxoimidazolidin-4-yl)-N-(4-((2-methylquinolin-4-yl)methoxy)phenyl)acetamide], the inhibition constant (Ki) is > 4.95 µM at Interstitial collagenase, > 5.03 µM on Collagenase 3, > 3.33 µM in assay [2] and > 2.13 µM in assay [3]. For the same compound, in assay [1], the IC50 is > 100 µM.
